Source: patent publication US20140234888A1, “Method for Improved Selection of Therapeutic Agents” (priority 2013, published 2014)

Assays:
[1] = tested on: blood cell fraction; experiment: TDR-test in vitro, blood of patient B. (Example 2); assay type: cell-based, human; conditions: for reduction TDR: patient B. blood, after 24 hours of incubation
Experimental: Individual selection of anticancer chemotherapy was based on testing the dynamics of TDR in blood with cytostatics—Etoposide (in single therapeutic doses 80-100-120 mg/m2), Cisplatin (25-50-75-100 mg/m2), Carboplatin (150-300-450 mg/m2), Gemcitabine (800-1000-1200 mg/m2), Navelbine (25-30-35 mg/m2), Doxorubicin (20-30-40 mg/m2), Epidoxorubicin (50-70-90 mg/m2), Mitomycin C (4-6-8 mg/m2).

[2] = tested on: Chronic rhinitis of allergic origin, chronic bronchitis; experiment: Treatment of patient F.; assay type: in vivo, human; conditions: before individual testing
Experimental: Diagnosis: “Chronic rhinitis of allergic origin, chronic bronchitis, allergic component in the acute stage.” In history: positive allergic reactions to penicillin antibiotics, the lack of reaction to tetracycline antibiotics. […] Doxycycline is used in doses of 100 mg and 200 mg on admission; when calculating the duration of induktothermy effect was adopted by the duration of the patient's blood sample for 2 seconds, which corresponds to the length of the actual procedure, 25-30 minutes.

[3] = tested on: whole blood; experiment: TDR-test in vitro, blood of patient G. (Example 1); assay type: cell-based, human; conditions: for reduction TDR: after 24 hours of incubation
[4] = tested on: Chronic obstructive bronchitis; experiment: Treatment of patient M.; assay type: in vivo, human; conditions: endobronchial 250 mg followed by inductothermy 30 minutes, 1 treatment per day, 10 procedures, 2 weeks
Experimental: Based on the results of investigations the patient was assigned to a combination of antibiotic Cefazolin and inductothermy: endobronchial administration of Cefazolin 250 mg and immediately after this session inductothermy the projection of the large bronchi in the anterior-posterior direction with opposing fields of the two vehicles “Magniterm” for 30 minutes.

[5] = tested on: microflora of the respiratory tract; experiment: Sputum sample sensitivity to antibiotics (antibiotikogramma); assay type: cell-based; conditions: sputum sample of patient M.
[6] = tested on: patient's blood; experiment: TDR-test in vitro, blood of patient M. (Example 4); conditions: various doses, 1, 2 and 24 hours
Experimental: Therefore, we first proposed to take, in fact, it is a dynamic integrated assessment test “in vitro” level of nonspecific resistance to therapeutic agents during interaction with the blood of the patient. Selection of optimal treatments, their doses and combinations proposed to control the TDR dynamics within 24-72 hours, with some time intervals. The choice of temporary interval for determination the TDR dynamic is defined of main stage of the biochemical interaction of medicine (or non-drug therapeutic influence) with blood of the patient in vitro (phase 1—induction of biochemical reactions within the first 10-40 minutes, 2nd—for 1-3 hours, 3rd—within 24-72 hours). Therefore, TDR is expedient to record in intervals of precisely these three main stages of the induced signal transduction and protein synthesis (30-60 minutes, 2-3 hours, 24-72 hours after the start of testing).

## COc1cc([C@@H]2c3cc4c(cc3[C@@H](O[C@@H]3O[C@@H]5CO[C@@H](C)O[C@H]5[C@H](O)[C@H]3O)[C@H]3COC(=O)[C@H]23)OCO4)cc(OC)c1O [Etoposide]
[1]; dose 120 mg/m2
  reduction TDR: 21%

## CN1CCc2c(c3ccccc3n2Cc2ccccc2)C1 [Diazolin]
[2]
  efficiency of conventional therapy: low efficiency

## N.N.O=C([O-])C1(C(=O)[O-])CCC1.[Pt+2] [Carboplatin]
[3]; dose 450 mg/m2
  reduction TDR: 36%
[1]; dose 350 mg/m2
  reduction TDR: 27%

## N.N.[Cl][Pt][Cl] [Cisplatin]
[3]; dose 75 mg/m2
  reduction TDR: 32%
[1]; dose 100 mg/m2
  reduction TDR: 32%

## Cc1nnc(SCC2=C(C(=O)O)N3C(=O)[C@@H](NC(=O)Cn4cnnn4)[C@H]3SC2)s1 [Cefazolin]
[4]
  clinical outcome: sustained remission of chronic bronchitis
[5]
  sensitivity of the microflora to the antibiotic: highly sensitive
[6]
  change of TDR in blood samples during the incubation: progressive decrease

## CC(=O)O[C@H]1C(=O)[C@@]2(C)[C@H]([C@H](OC(=O)c3ccccc3)[C@]3(O)C[C@H](OC(=O)[C@H](O)[C@@H](NC(=O)c4ccccc4)c4ccccc4)C(C)=C1C3(C)C)[C@]1(OC(C)=O)CO[C@@H]1C[C@@H]2O [Paclitaxel]
[3]; dose 175 mg/m2
  reduction TDR: 28%
[1]; dose 190 mg/m2
  reduction TDR: 25%

## CC(=O)N[C@H]1[C@H](O[C@H]2[C@H](O[C@H](C)C(=O)N[C@@H](C)C(=O)N[C@H](CCC(=O)O)C(N)=O)[C@@H](NC(C)=O)C(O)O[C@@H]2CO)O[C@H](CO)[C@@H](O)[C@@H]1O (stereo partly drawn) [GMDP, glucosomuramyldipeptide]
[3]; 24 h incubation, dose 5 mg
  TDR increase compared to control: 64%
[1]; patient B. blood cell fraction, after 1 hour of incubation, dose 50 mg
  increase in TDR compared with the control: 78%
[1]; patient B. blood cell fraction, after 24 h of incubation, dose 10 mg
  increase in TDR: 228%

## CCC1=C[C@@H]2CN(C1)Cc1c([nH]c3ccccc13)[C@@](C(=O)OC)(c1cc3c(cc1OC)N(C)[C@H]1[C@@](O)(C(=O)OC)[C@H](OC(C)=O)[C@]4(CC)C=CCN5CC[C@]31[C@@H]54)C2 [Navelbine]
[1]; dose 25 mg/m2
  reduction TDR: 20%

## O=P1(N(CCCl)CCCl)NCCCO1 (stereo not drawn) [Cyclophosphamide]
[3]; dose 600 mg/m2
  reduction TDR: 30%

## CC[C@H]1OC(=O)[C@H](C)[C@@H](O[C@H]2C[C@@](C)(OC)[C@@H](O)[C@H](C)O2)[C@H](C)[C@@H](O[C@@H]2O[C@H](C)C[C@H](N(C)C)[C@H]2O)[C@](C)(O)C[C@@H](C)C(=O)[C@H](C)[C@@H](O)[C@]1(C)O [Erythromycin]
[2]
  efficiency of conventional therapy: low efficiency

## Nc1ccn([C@@H]2O[C@H](CO)[C@@H](O)C2(F)F)c(=O)n1 [Gemcitabine]
[1]; dose 1200 mg/m2
  reduction TDR: 30%
